The subject of one data set is Septoria tritici. Put plainly: Example L: in vivo preventive test on Septoria tritici (wheat). As to conditions: table L; 500 ppm; wheat plants; grading 24 days after contamination. The procedure:
Example L: In Vivo Preventive Test on Septoria tritici (Wheat) […] Wheat plants (“Scipion” variety), sown in starter cups on a 50/50 peat soil pozzolana substrate and grown at 22° C., are treated at the 1 leaf stage (10 cm height) by spraying with the active ingredient prepared as described above. Plants, used as controls, are treated with the mixture of acetone/tween/DMSO/water not containing the active material. After 24 hours, the plants are contaminated by spraying the leaves with an aqueous suspension of cryopreserved Septoria tritici spores (500 000 spores per mL). The contaminated wheat plants are incubated for 72 hours at 18° C. and at 100% relative humidity, and then for 21 days at 90% relative humidity. Grading (% of efficacy) is carried out 24 days after the contamination, in comparison with the control plants.

Data set [1] can be described thus: log P by HPLC on reversed-phase column (EEC Directive 79/831 Annex V.A8). As to conditions: for logP: Table 1, HPLC C18, 40° C., 0.1% aqueous formic acid and acetonitrile gradient. It is filed as physicochemical. The procedure: In table 1, the log P values were determined in accordance with EEC Directive 79/831 Annex V.A8 by HPLC (High Performance Liquid Chromatography) on a reversed-phase column (C 18), using the method described below: Temperature: 40° C.; Mobile phases: 0.1% aqueous formic acid and acetonitrile; linear gradient from 10% acetonitrile to 90% acetonitrile. Calibration was carried out using unbranched alkan-2-ones (comprising 3 to 16 carbon atoms) with known log P values (determination of the log P values by the retention times using linear interpolation between two successive alkanones). lambda-max-values were determined using UV-spectra from 200 nm to 400 nm and the peak values of the chromatographic signals.

Another data set has as its system Puccinia recondita. Put plainly: Example R: in vivo preventive test on Puccinia recondita (brown rust on wheat). As to conditions: table R; 500 ppm; wheat plants; grading 12 days after contamination. How it is done: Example R: In Vivo Preventive Test on Puccinia recondita (Brown Rust on Wheat) […] Wheat plants (“Scipion” variety), sown in starter cups on a 50/50 peat soil pozzolana substrate and grown at 22° C., are treated at the 1 leaf stage (10 cm height) by spraying with the active ingredient prepared as described above. Plants, used as controls, are treated with the mixture of acetone/tween/DMSO/water not containing the active material. After 24 hours, the plants are contaminated by spraying the leaves with an aqueous suspension of Puccinia recondita spores (100 000 spores per mL). The spores are collected from an infected plant and are suspended in water containing 2.5 mL/L of Tween 80 at 10%. The contaminated wheat plants are incubated for 24 hours at 20° C. and at 100% relative humidity, and then for 10 days at 20° C. and at 70-80% relative humidity. Grading (% of efficacy) is carried out 12 days after the contamination, in comparison with the control plants.

The subject of another data set is Alternaria brassicae. As to the kind of experiment: Example D: in vivo preventive test on Alternaria brassicae (leaf spot on radish). As to conditions: table D; 500 ppm; radish plants; grading 6 days after contamination. How it is done:
Example D: In Vivo Preventive Test on Alternaria brassicae (Leaf Spot on Radish) […] Radish plants (“Pernod Clair” variety), sown in starter cups on a 50/50 peat soil pozzolana substrate and grown at 17° C., are treated at the cotyledon stage by spraying with the active ingredient prepared as described above. Plants, used as controls, are treated with the mixture of acetone/tween/DMSO/water not containing the active material. After 24 hours, the plants are contaminated by spraying the cotyledons with an aqueous suspension of Alternaria brassicae spores (50 000 spores per mL). The spores are collected from a 15-day-old culture. The contaminated radish plants are incubated at 20° C. and at 100% relative humidity. Grading (% of efficacy) is carried out 6 days after the contamination, in comparison with the control plants.

In a further data set the test system is Sphaerotheca fuliginea. Put plainly: Example B: in vivo preventive test on Sphaerotheca fuliginea (powdery mildew on cucurbits). As to conditions: table B; 500 ppm; gherkin plants; grading 12 days after contamination. How it is done: Example B: In Vivo Preventive Test on Sphaerotheca fuliginea (Powdery Mildew on Cucurbits) […] Gherkin plants (“Vert petit de Paris” variety), sown in starter cups on a 50/50 peat soil-pozzolana substrate and grown at 24° C., are treated at the Z11 cotyledon stage by spraying with the active ingredient prepared as described above. Plants, used as controls, are treated with the mixture of acetone/tween/DMSO/water not containing the active material. After 24 hours, the plants are contaminated by spraying the cotyledons with an aqueous suspension of Sphaerotheca fuliginea spores (100 000 spores per mL). The spores are collected from infected plants. The contaminated gherkin plants are incubated at about 20° C. and at 70-80% relative humidity. Grading (% of efficacy) is carried out 12 days after the contamination, in comparison with the control plants.

A further data set has as its system Pyrenophora teres. Put plainly: Example N: in vivo preventive test on Pyrenophora teres (barley). As to conditions: table N; 500 ppm; barley plants; grading 14 days after contamination. How it is done: Example N: In Vivo Preventive Test on Pyrenophora teres (Barley) […] Barley plants (“Plaisant” variety), sown in starter cups on a 50/50 peat soil pozzolana substrate and grown at 22° C., are treated at the 1 leaf stage (10 cm height) by spraying with the active ingredient prepared as described above. Plants, used as controls, are treated with the mixture of acetone/tween/DMSO/water not containing the active material. After 24 hours, the plants are contaminated by spraying the leaves with an aqueous suspension of Pyrenophora teres spores (12 000 spores per mL). The spores are collected from a 12-day-old culture. The contaminated barley plants are incubated for 48 hours at 20° C. and at 100% relative humidity, and then for 12 days at 20° C. at 70-80% relative humidity. Grading (% of efficacy) is carried out 14 days after the contamination, in comparison with the control plants.

For another data set, the system named is Botrytis cinerea. As to the kind of experiment: Example S: in vivo preventive test on Botrytis cinerea (grey mould). As to conditions: table S; 500 ppm; gherkin plants; grading 4 to 5 days after contamination. The procedure:
Example S: In Vivo Preventive Test on Botrytis cinerea (Grey Mould) […] Gherkin plants (“Vert petit de Paris” variety), sown in starter cups on a 50/50 peat soil pozzolana substrate and grown at 24° C., are treated at the Z11 cotyledon stage by spraying with the active ingredient prepared as described above. Plants, used as controls, are treated with the mixture of acetone/tween/DMSO/water not containing the active material. After 24 hours, the plants are contaminated by spraying the cotyledons with an aqueous suspension of cryopreserved Botrytis cinerea spores (50 000 spores per mL). The spores are suspended in a nutrient solution composed of 10 g/L of PDB, 50 g/L of D-Fructose, 2 g/L of NH4NO3 and 1 g/L of KH2PO4. The contaminated gherkin plants are incubated at 17° C. and at 90% relative humidity. Grading (% of efficacy) is carried out 4 to 5 days after the contamination, in comparison with the control plants.

Another data set deals with Uromyces appendiculatus. Put plainly: Example G: in vivo preventive test on Uromyces appendiculatus (bean rust). As to conditions: table G1; 500 ppm; bean plants; grading 11 days after contamination. The procedure: Example G: In Vivo Preventive Test on Uromyces appendiculatus (Bean Rust) […] Bean plants (“Saxa” variety), sown in starter cups on a 50/50 peat soil pozzolana substrate and grown at 24° C., are treated at the 2 leaf stage (9 cm height) by spraying with the active ingredient prepared as described above. Plants, used as controls, are treated with the mixture of acetone/tween/DMSO/water not containing the active material. After 24 hours, the plants are contaminated by spraying the leaves with an aqueous suspension of Uromyces appendiculatus spores (150 000 spores per mL). The spores are collected from infected plants and are suspended in water containing 2.5 mL/L of Tween 80 at 10%. The contaminated bean plants are incubated for 24 hours at 20° C. and at 100% relative humidity, and then for 10 days at 20° C. and at 70-80% relative humidity. Grading (% of efficacy) is carried out 11 days after the contamination, in comparison with the control plants.

By logP is commonly meant a log measure of how a compound divides between an organic and an aqueous phase. A lower logP goes with lower lipophilicity. In the case of `Cn1nc(C(F)F)c(C(=S)N(CC2CC(C)(C)c3ccccc32)C2CC2)c1F` (stereo not shown) [I.11], the Efficacy came out at 100% in the data set with Septoria tritici; 94% in the data set on Puccinia recondita; 100% in the data set on Alternaria brassicae; 100% in the data set on Sphaerotheca fuliginea; 100% in the data set with Pyrenophora teres; 100% in the data set on Botrytis cinerea. In addition, the logP in data set [1] is 4.69.
As to `Cn1nc(C(F)F)c(C(=O)N(CC2CCc3ccc(C(F)(F)F)cc32)C2CC2)c1Cl` (stereo not shown) [I.16], the Efficacy is recorded as 98% in the data set with Septoria tritici; 88% in the data set with Puccinia recondita; 100% in the data set with Uromyces appendiculatus; 100% with Sphaerotheca fuliginea; 100% in the data set with Botrytis cinerea. Further, the logP in data set [1] came out at 4.04.
Turning to `Cn1nc(C(F)F)c(C(=O)N(CC2CCc3ccc(C(F)(F)F)cc32)C2CC2)c1F` (stereo not shown) [I.17], the Efficacy is recorded as 94% with Septoria tritici; 100% with Puccinia recondita; 100% in the data set on Uromyces appendiculatus; 100% with Sphaerotheca fuliginea; 86% in the data set with Pyrenophora teres; 100% in the data set on Botrytis cinerea. In addition, the logP in data set [1] was found to be 3.87.
With `Cn1nc(C(F)F)c(C(=S)N(CC2CCc3c(Cl)cc(Cl)cc32)C2CC2)c1F` (stereo not shown) [I.20], the Efficacy with Septoria tritici is given as 97%; in the data set on Puccinia recondita, 83%; with Uromyces appendiculatus, 100%; with Alternaria brassicae, 100%; with Sphaerotheca fuliginea it was 100%; with Pyrenophora teres it was 100%. This compound displayed an Efficacy in the data set on Botrytis cinerea of 75%. Further, the logP in data set [1] is given as 5.22.
For `CC1CCC(CN(C(=O)c2c(C(F)F)nn(C)c2F)C2CC2)c2ccccc21` (stereo not shown) [I.24], the Efficacy with Septoria tritici came to 100%; with Puccinia recondita, 94%; in the data set on Uromyces appendiculatus, 100%; in the data set with Alternaria brassicae, 100%; in the data set on Sphaerotheca fuliginea, 100%; in the data set on Pyrenophora teres, 100%. In the data set with Botrytis cinerea, the Efficacy turned out to be 100%. Besides, the logP in data set [1] came out at 3.96.
One may read the chromatographic logP as lipophilicity estimated from chromatographic retention. A lower chromatographic logP goes with lower lipophilicity. The compound `COc1cccc2c1CCCC2CN(C(=O)c1c(C(F)F)nn(C)c1F)C1CC1` (stereo not shown) [I.26, N-cyclopropyl-3-(difluoromethyl)-5-fluoro-N-[(5-methoxy-1,2,3,4-tetrahydronaphthalen-1-yl)methyl]-1-methyl-1H-pyrazole-4-carboxamide] came in with a chromatographic logP in data set [1] of 3.65. Moreover, the Efficacy in the data set with Alternaria brassicae, in the data set with Sphaerotheca fuliginea, with Pyrenophora teres and in the data set on Botrytis cinerea was 100% in each case.
As for `Cn1nc(C(F)F)c(C(=O)N(CC2CCCc3cccc(Cl)c32)C2CC2)c1F` (stereo not shown) [I.28], the Efficacy in the data set with Septoria tritici came to 100%; in the data set on Uromyces appendiculatus it was 88%; in the data set on Alternaria brassicae it was 100%; in the data set on Sphaerotheca fuliginea, 100%; in the data set with Pyrenophora teres it was 94%; in the data set with Botrytis cinerea, 100%. In addition, the logP in data set [1] is given as 4.09.
As to `Cn1nc(C(F)F)c(C(=O)N(CC2CCCCc3ccccc32)C2CC2)c1F` (stereo not shown) [I.30], the Efficacy in the data set with Septoria tritici came to 100%; in the data set with Puccinia recondita, 94%; in the data set with Uromyces appendiculatus, 100%; in the data set on Alternaria brassicae it was 100%; in the data set with Sphaerotheca fuliginea, 100%; in the data set with Pyrenophora teres it was 100%. Further, the Efficacy in the data set with Botrytis cinerea stood at 100%. In addition, the log partition coefficient (logP) in data set [1] was 3.90.
`Cn1nc(C(F)F)c(C(=O)N(CC2CCOc3ccccc32)C2CC2)c1F` (stereo not shown) [I.31]: the Efficacy in the data set with Septoria tritici came to 100%; in the data set on Puccinia recondita, 83%; in the data set on Uromyces appendiculatus, 94%; with Alternaria brassicae, 100%; in the data set on Sphaerotheca fuliginea, 100%; in the data set on Pyrenophora teres, 100%. The same compound registered an Efficacy with Botrytis cinerea of 100%. In data set [1], the lipophilicity (logP) was 3.00.
As for `Cn1nc(C(F)F)c(C(=O)N(CC2CSCc3ccccc32)C2CC2)c1F` (stereo not shown) [I.34], the Efficacy stood at 93% with Septoria tritici; 100% with Alternaria brassicae; 90% in the data set with Sphaerotheca fuliginea; 94% with Pyrenophora teres; 100% in the data set with Botrytis cinerea. The logP in data set [1] was 3.21.
Regarding `Cn1nc(C(F)F)c(C(=O)N(CC2CCSc3ccc(F)cc32)C2CC2)c1F` (stereo not shown) [I.35], the logP in data set [1] is 3.44. In addition, the Efficacy in the data set on Puccinia recondita is reported as 78%; in the data set on Uromyces appendiculatus, 100%; in the data set with Alternaria brassicae it was 88%; in the data set on Sphaerotheca fuliginea it was 80%; with Pyrenophora teres, 98%; with Botrytis cinerea it was 100%.
For `Cn1nc(C(F)F)c(C(=O)N(CC2CCSc3ccc(Cl)cc32)C2CC2)c1F` (stereo not shown) [I.36], the Efficacy with Septoria tritici was determined as 79%; in the data set on Puccinia recondita, 78%; in the data set on Uromyces appendiculatus, 100%; in the data set with Alternaria brassicae, 100%; in the data set on Sphaerotheca fuliginea, 85%; with Pyrenophora teres, 94%. Besides, in the data set with Botrytis cinerea, the Efficacy is given as 97%. The logP in data set [1] stood at 3.83.

The values are drawn from patent US9686985B2, “Fungicide N-cycloalkyl-N-bicyclicmethylene-carboxamide derivatives” (BAYER INTELLECTUAL PROPERTY GMBH, priority 2012, dated 2017).
